Assay results as given in patent publication US11999727B2 (Tango Therapeutics, Inc., priority 2020, dated 2024).

Tests used:
PRMT5 [1] = molecular target: T1, PRMT5 (Homo sapiens, UniProt O14744); test: PRMT5 biochemical IC50 assay with SAM as cofactor; details: PRMT5, SAM as cofactor; read-out: SAM IC50
T1 construct: purchased Viva (custom protein)

PRMT5 [2] = molecular target: T1, PRMT5; test: PRMT5 biochemical IC50 assay with no cofactor; details: PRMT5, no cofactor; read-out: No Cofactor/ rel IC50
Description: Table 1 indicates IC50 values (μM) against PRMT5 for exemplary compounds in the presence of SAM as cofactor, with no cofactor, and with MTA as cofactor, respectively (columns 4-6). […] Ki values can be calculated from the IC50 values as described in the Examples section. As detailed in the Examples section, for the assay performed in the presence of SAM, IC50=Ki×1.5 (Ki=IC50/1.5).

PRMT5 [3] = molecular target: T1, PRMT5; test: PRMT5 biochemical IC50 assay with MTA as cofactor; details: PRMT5, MTA as cofactor; read-out: MTA IC50
[4] = test system: HAP1 MTAP-intact cell line; test: SDMA in-cell western assay, HAP1 MTAP-intact; type: cell-based; details: Homo sapiens, HAP1, SDMA in-cell western, HAP1 MTAP-intact; read-out: MTAP HAP1 intact IC50
In short: (§1)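 MTAP-null vs endogenous-MTAP HAP1 isogenic cells; in-cell western SDMA readout; IC50 per line.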

[5] = test system: HAP1 MTAP-deleted cell line; test: SDMA in-cell western assay, HAP1 MTAP-deleted; type: cell-based; details: for IC50: Homo sapiens, HAP1, SDMA in-cell western, HAP1 MTAP-deleted, read-out: HAP 1 MTAP deleted IC50; for MTAP intact/deleted ratio: IC50 ratio HAP1 MTAP-intact / HAP1 MTAP-deleted, SDMA in-cell western
In short: as §1

[6] = test system: HAP1 MTAP-deleted cell line; test: Viability assay, MTAP-deleted cell line; type: cell-based; details: Homo sapiens, HAP1, viability assay, MTAP-deleted cell line; read-out: HAP1 MTAP deleted viability
Description: Table 1 additionally indicates IC50 values in a viability assay for the MTAP-deleted cell line (column 10), indicating the effect of treatment with compound on cell survival.

T1 sequence (O14744 whole entry): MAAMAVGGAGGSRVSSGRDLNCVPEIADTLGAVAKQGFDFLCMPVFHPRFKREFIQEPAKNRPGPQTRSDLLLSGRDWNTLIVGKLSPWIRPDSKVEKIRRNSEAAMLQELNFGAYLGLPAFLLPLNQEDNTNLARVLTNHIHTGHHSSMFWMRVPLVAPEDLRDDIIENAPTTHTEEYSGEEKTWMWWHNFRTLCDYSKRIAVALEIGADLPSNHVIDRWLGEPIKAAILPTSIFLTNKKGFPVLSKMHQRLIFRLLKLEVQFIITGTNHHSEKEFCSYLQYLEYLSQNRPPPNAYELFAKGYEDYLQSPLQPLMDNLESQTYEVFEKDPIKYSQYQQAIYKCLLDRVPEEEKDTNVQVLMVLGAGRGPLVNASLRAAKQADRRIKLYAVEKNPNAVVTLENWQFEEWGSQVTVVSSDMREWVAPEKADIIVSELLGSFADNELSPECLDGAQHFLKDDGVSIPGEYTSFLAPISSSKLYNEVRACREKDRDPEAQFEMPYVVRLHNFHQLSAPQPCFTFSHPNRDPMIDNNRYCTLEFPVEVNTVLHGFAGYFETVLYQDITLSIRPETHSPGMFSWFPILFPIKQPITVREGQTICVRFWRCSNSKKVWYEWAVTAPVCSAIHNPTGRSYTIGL
T1 sequence (Q9BQA1 whole entry partner): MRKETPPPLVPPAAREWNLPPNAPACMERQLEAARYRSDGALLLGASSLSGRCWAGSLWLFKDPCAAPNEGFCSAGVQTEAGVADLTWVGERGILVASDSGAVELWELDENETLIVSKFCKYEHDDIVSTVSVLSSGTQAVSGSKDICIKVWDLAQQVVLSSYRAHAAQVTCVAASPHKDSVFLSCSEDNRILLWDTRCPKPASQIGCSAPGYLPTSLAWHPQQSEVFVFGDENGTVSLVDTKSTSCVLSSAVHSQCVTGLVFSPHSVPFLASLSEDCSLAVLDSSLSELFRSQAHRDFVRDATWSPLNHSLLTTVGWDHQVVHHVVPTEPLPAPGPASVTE

SMILES | IC50 (PRMT5 [1]) | IC50 (PRMT5 [2]) | IC50 (PRMT5 [3]) | IC50 [4] | IC50 [5] | MTAP intact/deleted ratio [5] | IC50 [6]
COc1ccc([C@@H]2CC[C@@H](C)CN2C(=O)C(=O)Nc2cncc(C(N)=O)c2)cn1 (racemic) [Compound 128, rac-5-{2-[(2R,5S)-2-(6-Methoxypyridin-3-yl)-5-methylpiperidin-1-yl]-2-oxoacetamido}pyridine-3-carboxamide] | 50 to 500 nM | 50 to 500 nM | < 50 nM | > 1000 nM | 100 to 1000 nM | A (an IC50 ratio greater than or equal to 10 fold) | > 10000 nM
Cc1cc([C@@H]2CC[C@@H](C)CN2C(=O)C(=O)Nc2cncc(C(N)=O)c2)ccc1F (racemic) [Compound 131, rac-5-{2-[(2R,5S)-2-(4-Fluoro-3-methylphenyl)-5-methylpiperidin-1-yl]-2-oxoacetamido}pyridine-3-carboxamide] | > 500 nM | 50 to 500 nM | < 50 nM | > 1000 nM | < 100 nM | A (an IC50 ratio greater than or equal to 10 fold) | 1000 to 10000 nM
NC(=O)c1cncc(NC(=O)C(=O)N2CCC3CCCCCC3C2)c1 (racemic) [Compound 133, 5-(2-{Decahydro-1H-cyclohepta[c]pyridin-2-yl}-2-oxoacetamido)pyridine-3-carboxamide] | 50 to 500 nM | > 500 nM | 50 to 500 nM | > 1000 nM | > 1000 nM | B (an IC50 ratio greater than or equal to 3 fold but lower than 10 fold) | > 10000 nM
Cc1cc(NC(=O)C(=O)N2CCCCC2C(C)C)cnc1N (racemic) [Compound 135, N-(6-amino-5-methyl-3-pyridyl)-2-(2-isopropyl-1-piperidyl)-2-oxo-acetamide] | 50 to 500 nM | 50 to 500 nM | < 50 nM | > 1000 nM | 100 to 1000 nM | A (an IC50 ratio greater than or equal to 10 fold) | > 10000 nM
CC1(C)CCCC2CN(C(=O)C(=O)Nc3cncc(C(N)=O)c3)CCC21 (racemic) [Compound 141, 5-[2-(5,5-Dimethyl-decahydroisoquinolin-2-yl)-2-oxoacetamido]pyridine-3-carboxamide] | 50 to 500 nM | 50 to 500 nM | < 50 nM | > 1000 nM | 100 to 1000 nM | A (an IC50 ratio greater than or equal to 10 fold) | > 10000 nM
CC1CCC(C2CCCC2)CN1C(=O)C(=O)Nc1cncc(C(N)=O)c1 (racemic) [Compound 143, 5-[2-(5-Cyclopentyl-2-methylpiperidin-1-yl)-2-oxoacetamido]pyridine-3-carboxamide] | > 500 nM | > 500 nM | 50 to 500 nM | > 1000 nM | > 1000 nM | C (an IC50 ratio of less than 3 fold) | > 10000 nM
Cc1cc(NC(=O)C(=O)N2C[C@H](C)CC[C@H]2C2CCC(C(C)(C)C)CC2)cnc1N (mixture of isomers) [Compound 145, rac-N-(6-amino-5-methyl-3-pyridyl)-2-[(2S,5R)-2-(4-tert-butylcyclohexyl)-5-methyl-1-piperidyl]-2-oxo-acetamide] | 50 to 500 nM | 50 to 500 nM | < 50 nM | > 1000 nM | 100 to 1000 nM | C (an IC50 ratio of less than 3 fold) | > 10000 nM
Cc1cc(NC(=O)C(=O)N2C[C@H](C)CC[C@H]2c2cccnc2)cnc1N (racemic) [Compound 146, N-(6-amino-5-methyl-3-pyridyl)-2-[(2S,5R)-5-methyl-2-(3-pyridyl)-1-piperidyl]-2-oxo-acetamide] | 50 to 500 nM | 50 to 500 nM | < 50 nM | > 1000 nM | < 100 nM |  | 1000 to 10000 nM
Cc1cc(NC(=O)C(=O)N2C[C@H](C)CC[C@H]2C2CCCC(C)(C)C2)cnc1N (mixture of isomers) [Compound 150, N-(6-amino-5-methyl-3-pyridyl)-2-[(2S,5R)-2-(3,3-dimethylcyclohexyl)-5-methyl-1-piperidyl]-2-oxo-acetamide] | 50 to 500 nM | 50 to 500 nM | 50 to 500 nM | > 1000 nM | 100 to 1000 nM | C (an IC50 ratio of less than 3 fold) | 1000 to 10000 nM
CC1Cc2cc([C@@H]3CC[C@@H](C)CN3C(=O)C(=O)Nc3cncc(C(N)=O)c3)ccc2O1 (mixture of isomers) [Compound 151, rac-5-{2-[(2R,5S)-5-Methyl-2-(2-methyl-2,3-dihydro-1-benzofuran-5-yl)piperidin-1-yl]-2-oxoacetamido}pyridine-3-carboxamide] | 50 to 500 nM | 50 to 500 nM | < 50 nM | > 1000 nM | < 100 nM | A (an IC50 ratio greater than or equal to 10 fold) | 1000 to 10000 nM
Cc1cc(C)n(-c2cccc([C@@H]3CC[C@@H](C)CN3C(=O)C(=O)Nc3cncc(C(N)=O)c3)c2)n1 (racemic) [Compound 153, rac-5-{2-[(2R,5S)-2-[3-(3,5-Dimethyl-1H-pyrazol-1-yl)phenyl]-5-methylpiperidin-1-yl]-2-oxoacetamido}pyridine-3-carboxamide] | 50 to 500 nM | 50 to 500 nM | 50 to 500 nM | > 1000 nM | < 100 nM | A (an IC50 ratio greater than or equal to 10 fold) | 1000 to 10000 nM
C[C@@H]1CC[C@@H](c2ccccc2)N(C(=O)C(=O)Nc2cncc(C(N)=O)c2)[C@@H]1C (racemic) [Compound 154, rac-5-[[2-[(2R,3R,6S)-2,3-dimethyl-6-phenyl-1-piperidyl]-2-oxo-acetyl]amino]pyridine-3-carboxamide] | 50 to 500 nM | 50 to 500 nM | < 50 nM | > 1000 nM | > 1000 nM | B (an IC50 ratio greater than or equal to 3 fold but lower than 10 fold) | > 10000 nM
C[C@@H]1CC[C@@H](C2CCC2)N(C(=O)C(=O)Nc2cncc(C(N)=O)c2)C1 (racemic) [Compound 155, 5-[[2-[(2R,5S)-2-cyclobutyl-5-methyl-1-piperidyl]-2-oxo-acetyl]amino]pyridine-3-carboxamide] | 50 to 500 nM | 50 to 500 nM | < 50 nM | > 1000 nM | 100 to 1000 nM | A (an IC50 ratio greater than or equal to 10 fold) | > 10000 nM
Cc1cc(C)n(-c2ccc([C@@H]3CC[C@@H](C)CN3C(=O)C(=O)Nc3cncc(C(N)=O)c3)cc2)n1 (racemic) [Compound 157, rac-5-{2-[(2R,5S)-2-[4-(3,5-Dimethyl-1H-pyrazol-1-yl)phenyl]-5-methylpiperidin-1-yl]-2-oxoacetamido}pyridine-3-carboxamide] | 50 to 500 nM | 50 to 500 nM | 50 to 500 nM | > 1000 nM | > 1000 nM | B (an IC50 ratio greater than or equal to 3 fold but lower than 10 fold) | > 10000 nM
Cc1cc(NC(=O)C(=O)N2C[C@H](C)CC[C@H]2C)cnc1N (racemic) [Compound 158, N-(6-amino-5-methyl-3-pyridyl)-2-[(2R,5R)-2,5-dimethyl-1-piperidyl]-2-oxo-acetamide] | 50 to 500 nM | 50 to 500 nM | 50 to 500 nM | > 1000 nM | > 1000 nM | C (an IC50 ratio of less than 3 fold) | > 10000 nM
Cc1ccc([C@@H]2CC[C@@H](C)CN2C(=O)C(=O)Nc2cncc(C(N)=O)c2)cc1F (racemic) [Compound 162, rac-5-{2-[(2R,5S)-2-(3-Fluoro-4-methylphenyl)-5-methylpiperidin-1-yl]-2-oxoacetamido}pyridine-3-carboxamide] | 50 to 500 nM | 50 to 500 nM | < 50 nM | > 1000 nM | < 100 nM | A (an IC50 ratio greater than or equal to 10 fold) | 1000 to 10000 nM
C[C@@H]1CC[C@H](c2ccccc2)N(C(=O)C(=O)Nc2cncc(C(N)=O)c2)[C@@H]1C (racemic) [Compound 163, rac-5-[[2-[(2R,3R,6R)-2,3-dimethyl-6-phenyl-1-piperidyl]-2-oxo-acetyl]amino]pyridine-3-carboxamide] | 50 to 500 nM | 50 to 500 nM | < 50 nM | > 1000 nM | 100 to 1000 nM | A (an IC50 ratio greater than or equal to 10 fold) | > 10000 nM
Cc1cc(NC(=O)C(=O)N2C[C@H](C)CC[C@H]2C(C)C)cnc1N (racemic) [Compound 165, N-(6-amino-5-methyl-3-pyridyl)-2-[(2S,5R)-2-isopropyl-5-methyl-1-piperidyl]-2-oxo-acetamide] | 50 to 500 nM | 50 to 500 nM | < 50 nM | > 1000 nM | 100 to 1000 nM | A (an IC50 ratio greater than or equal to 10 fold) | > 10000 nM
